Patent publication US9072306B2, “Method for the pre- or post-harvest treatment of plant products, using phosphonic acid and an essential oil” (priority 2010, dated 2015)

Legend:
Rhizoctonia = experiment: Viability of Rhizoctonia propagules on treated potato tubers in storage
Protocol: (§1) The efficacy of combinations of essential oils and potassium salt of phosphonic acid (potassium sesquiphosphite) to reduce the viability of fungal infection and diseases in potatoes during storage was measured in the following manner: the tubers were collected. 500 tubers were selected for their average infection of Rhizoctonia (variety Nicola Bio); Helminthosporium solani (variety Vivaldi traditional). The tubers were incubated at 15° C. for 45 days to allow the development of symptoms. 50 tubers (6 to 8 kg) were treated with a composition of essential oil (at 570 ppm or 1140 ppm), a composition of potassium salt of phosphonic acid at 0.6% or 1.2% by weight, as well as mixtures thereof. The phosphonic acid solution was sprayed at ambient temperature at an application rate of 75 mL per 5 kg. 50 mL of clove oil solution were sprayed out. The tubers were incubated at 8° C. for 45 days after treatment. The viability of colonies of Rhizoctonia and Helminthosporium was monitored.

Helminthosporium solani = experiment: Viability of Helminthosporium solani propagules on treated potato tubers in storage
Protocol: as §1

[1] = tested on: Colletotrichum gloeosporioides; experiment: Treatment of olive trees affected by Colletotrichum gloeosporioides; format: in vivo; settings: for Percentage of olive leaves with symptoms of infection: dose 0.5% of potassium sesquiphosphite composition alone
From the text: A composition at about 20% of clove oil and a composition of the potassium salt of phosphonic acid were separately applied at doses of 0.3% and 0.5% respectively, as well as in combination with the same doses.

Geotrichum sp = experiment: Efficacy against Geotrichum sp on inoculated citrus (mandarin ortanique); format: in vivo; settings: K-Phos 500 ml/100 L (375 g/100 L potassium sesquiphosphite), spraying at ambient temperature
Protocol: The fruits were inoculated with a suspension of spores of Geotrichum sp after perforation of the skin. […] When clove oil alone was applied, the fruits were immersed for 2 min in a bath at a temperature of between 49° C. and 51° C. The fruits were stored. At various time intervals, the fruits were individually inspected for signs of phytotoxicity and efficacy by determining the percentage of the surface of the skin affected and the stage of development of the disease in the controls. The variables studied were the incidence (percentage of fruit affected) and severity of the attack (percentage of the fruit surface affected by the disease).

Penicilliums = settings: ambient temperature, treatment doses close to 10,000 ppm, oranges; cited from earlier work
[2] = tested on: Colletotrichum gloeosporioides; settings: in vivo; cited from earlier work
[3] = 0.6% potassium sesquiphosphite alone, potato tubers sprayed at ambient temperature, 45 days at 8° C. after treatment
[4] = 1.2% potassium sesquiphosphite alone, potato tubers sprayed at ambient temperature, 45 days at 8° C. after treatment
[5] = 570 ppm oil/terpene alone, potato tubers sprayed, 45 days at 8° C. after treatment

## potassium sesquiphosphite
Rhizoctonia; [3]
  Viability of Propagules (%) Rhizoctonia: 60%
Rhizoctonia; [4]
  Viability of Propagules (%) Rhizoctonia: 22%
Helminthosporium solani; [3]
  Viability of Propagules (%) Helminthosporium solani: 30%
Helminthosporium solani; [4]
  Viability of Propagules (%) Helminthosporium solani: 6%
[1]; t1 + 90 days
  Percentage of olive leaves with symptoms of infection: 50%
[1]; t1
  Percentage of olive leaves with symptoms of infection: 41%
Geotrichum sp
  Percentage of fruit affected after 14 days, value in parentheses (activity compared to the control): no activity

## CC(C)=CCC/C(C)=C/CO [geraniol]
Rhizoctonia; [5]
  Viability of Propagules (%) Rhizoctonia: 83%
Helminthosporium solani; [5]
  Viability of Propagules (%) Helminthosporium solani: 38%

## Cc1ccc(C(C)C)cc1O [carvacrol]
Rhizoctonia; [5]
  Viability of Propagules (%) Rhizoctonia: 52%
Helminthosporium solani; [5]
  Viability of Propagules (%) Helminthosporium solani: 50%

## O=[PH](O)O [phosphonic acid, Phosphonic acid]
Penicilliums
  activity on Penicilliums: very weak
Rhizoctonia; applied alone
  control of the growth of Rhizoctonia: altogether insufficient degree
Helminthosporium solani; applied alone
  control of the growth of Helminthosporium solani: altogether insufficient degree
[1]; applied alone
  activity compared to the control (olive leaf infection): low level of activity

## O=C1C2CC=CCC2C(=O)N1SC(Cl)(Cl)Cl (stereo not drawn) [Captan]
[2]
  activity in control of the disease in olive orchards: low level of activity

## Cc1ccc(C(C)C)c(O)c1 [thymol]
Rhizoctonia; Rhizoctonia, in vivo, 45 days, 570 ppm
  Viability of Propagules (%) Rhizoctonia: 75%
Helminthosporium solani; Helminthosporium solani, in vivo, 45 days, 570 ppm
  Viability of Propagules (%) Helminthosporium solani: 45%
